Experimental findings from patent US20240254138A1, “TRICYCLIC PYRIMIDINES AS CYCLIN-DEPENDENT KINASE 7 (CDK7) INHIBITORS” (JANSSEN PHARMACEUTICA NV, priority 2021, published 2024) are described below.

Assay [1] has as its system RNA Polymerase II Serine 5 phosphorylation (Rpb1 CTD, downstream substrate of CDK7) in A549 cells. The experiment in a line: Imaging-based cellular RNA PolII Ser5 phosphorylation assay in A549 cells. The class given is cell-based, human. The conditions noted are these: wild-type CDK7, RNA PolII Ser5 phosphorylation, averaged over all measurements; for IC50: Homo sapiens, A549, A549 cells, read-out: CDK7_A549 Wild-type CDK7 (pIC50) (converted); for CDK7_A549 Wild-type CDK7 (pIC50): A549 cells. The essentials: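 IC50 derived by fitting % control (DMSO high, 10 μM reference low) against concentration, with Hill slope. Readout: high-content imaging of phospho-Ser5 Rpb1 CTD antibody staining in fixed, permeabilized A549 cells exposed to compound 3 h after 20 h culture in 1% FBS DMEM.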

Assay [2] concerns RNA Polymerase II Serine 5 phosphorylation in A549 cells overexpressing CDK7-mutant (C312S). The experiment in a line: Imaging-based cellular RNA PolII Ser5 phosphorylation assay in A549 cells overexpressing CDK7-mutant (C312S). The conditions noted are these: RNA PolII Ser5 phosphorylation, averaged over all measurements; for IC50: Homo sapiens, A549, A549 cells overexpressing CDK7-mutant (C312S), read-out: CDK7_A549 mutant hCDK7(pIC50) (converted); for CDK7_A549 mutant hCDK7(pIC50): A549 cells overexpressing CDK7-mutant (C312S). It counts as cell-based, human. The gist of the method:
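Readout was automated imaging of anti-phospho-Ser5 Rpb1 CTD immunofluorescence, with IC50 fitted to % control versus concentration. Cells were A549 stably overexpressing non-covalently targetable CDK7 C312S alongside wild-type, exposed to compound 3 h at 37 °C. DMSO and 10 μM reference compound served as controls.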

Assay [3] has as its target CDK7/cyclinH/MAT1 trimeric complex (Homo sapiens, UniProt P50613). In words: In vitro CDK7 assay, potency of irreversible covalent inhibitors (kinact/KI), coupled PK/LDH ADP readout at 340 nm. The conditions noted are these: for Ki: CDK7 (20 nM enz.) (KI, μM); for Ki / CDK7 (20 nM enz.) (kinact, s^−1) / CDK7 (20 nM enz.) (kinact/KI, M^−1*s^−1): 20 nM enzyme; for kinact: read-out: CDK7 (20 nM enz.) (kinact, s^−1), 20 nM enzyme.

Where [4] appears, read: read-out: CDK7 (20 nM enz.) (kinact/KI, M^−1*s^−1), 20 nM enzyme.
[5] abbreviates: read-out: CDK7 (20 nM enz.) (kobs/[I], M^−1*s^−1), 20 nM enzyme.

Like-named read-outs stand apart in the source and are kept apart here. Bounds are passed on as bounds.

Sequence of CDK7/cyclinH/MAT1 trimeric complex (P50613 whole entry): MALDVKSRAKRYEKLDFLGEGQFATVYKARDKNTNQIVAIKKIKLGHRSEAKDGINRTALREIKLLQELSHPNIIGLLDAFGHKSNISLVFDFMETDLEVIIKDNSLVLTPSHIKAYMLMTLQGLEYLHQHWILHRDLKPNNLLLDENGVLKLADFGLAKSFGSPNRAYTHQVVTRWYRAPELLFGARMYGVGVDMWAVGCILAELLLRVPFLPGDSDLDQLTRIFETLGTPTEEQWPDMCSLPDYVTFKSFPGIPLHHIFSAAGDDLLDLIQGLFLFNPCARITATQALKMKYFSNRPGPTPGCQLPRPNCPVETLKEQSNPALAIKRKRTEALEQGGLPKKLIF
Sequence of CDK7/cyclinH/MAT1 trimeric complex (P51946 whole entry partner): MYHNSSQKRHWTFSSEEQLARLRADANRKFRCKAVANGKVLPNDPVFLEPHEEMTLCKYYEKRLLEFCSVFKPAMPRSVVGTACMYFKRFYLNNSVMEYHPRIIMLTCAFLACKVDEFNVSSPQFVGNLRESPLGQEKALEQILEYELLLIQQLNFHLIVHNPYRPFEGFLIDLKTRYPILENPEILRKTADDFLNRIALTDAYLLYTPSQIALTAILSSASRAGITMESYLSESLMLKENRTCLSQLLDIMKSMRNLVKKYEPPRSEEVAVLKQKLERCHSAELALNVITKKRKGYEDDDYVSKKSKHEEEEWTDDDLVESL
Sequence of CDK7/cyclinH/MAT1 trimeric complex (P51948 whole entry partner): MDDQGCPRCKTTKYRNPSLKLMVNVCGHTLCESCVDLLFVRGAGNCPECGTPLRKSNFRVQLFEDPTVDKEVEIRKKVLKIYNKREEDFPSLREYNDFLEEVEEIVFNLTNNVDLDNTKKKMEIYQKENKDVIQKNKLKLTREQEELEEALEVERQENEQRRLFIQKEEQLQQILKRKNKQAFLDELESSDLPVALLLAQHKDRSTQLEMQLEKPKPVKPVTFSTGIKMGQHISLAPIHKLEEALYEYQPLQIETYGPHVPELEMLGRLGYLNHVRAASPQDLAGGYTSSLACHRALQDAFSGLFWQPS

In general, kinact refers to the maximal first-order rate at which the target is inactivated. Regarding `C=CC(=O)N1CC[C@H](N2CC(c3cc(C)c4c(c3)Nc3nccc(N5CCOCC5)c3CO4)C2)C1` (single isomer, unassigned) [Compound 329], in assay [1], the IC50 is 79.4 nM. Further, in assay [2], the IC50 is more than 10000 nM. Further, in assay [3], the Ki turned out to be 0.0243 µM and the kinact came to 3.81e-05 s⁻¹. Also, in assay [3] (setting [4]), the kinact/KI turned out to be 1570 M⁻¹ s⁻¹.
For `Cc1nc(C2CCN([C@@H]3CCN(C(=O)/C=C/C(=O)O)C3)CC2)cc2c1OCc1c(-c3cnn(C)c3)ccnc1N2` (single isomer, unassigned) [Compound 330] the same measures were 7240 nM, more than 10000 nM, 4.58 µM, 8.82e-05 s⁻¹ and 19.2 M⁻¹ s⁻¹.
The matching figures for `Cc1nc(C2CCN([C@H]3CCN(C(=O)/C=C/C(=O)O)C3)CC2)cc2c1OCc1c(-c3cnn(C)c3)ccnc1N2` (single isomer, unassigned) [Compound 332]: 7590 nM, more than 10000 nM, 4.85 µM, 2.19e-05 s⁻¹ and 4.51 M⁻¹ s⁻¹.
Take `C=CC(=O)N1CC(N2CC(c3cc4c(c(C)n3)O[C@H](C)c3c(N5CCOCC5)ccnc3N4)C2)C1` (single isomer, unassigned) [Compound 343]: the “CDK7_A549 Wild-type CDK7 (pIC50)” value in assay [1] came out at 7.15. For the same compound, the “CDK7_A549 mutant hCDK7(pIC50)” value in assay [2] was less than 5. In assay [3], the “CDK7 (20 nM enz.) (kinact, s^−1)” value amounted to 5.902e-05 s⁻¹; the “CDK7 (20 nM enz.) (kinact/KI, M^−1*s^−1)” value was 1172.91 M⁻¹ s⁻¹; the Ki was found to be 0.0503 µM.
Consider `CC#CC(=O)N1CC(N2CCC(c3cc4c(c(C)n3)O[C@@H](C)c3c(N5CCOCC5)ccnc3N4)CC2)C1` (single isomer, unassigned) [Compound 344], for which the IC50 in assay [1] was 3980 nM. For the same compound, the IC50 in assay [2] was more than 10000 nM. Besides, in assay [3], the Ki worked out at 17.1 µM and the inactivation rate constant (kinact) was determined as 5.4e-05 s⁻¹. Also, in assay [3] (setting [4]), the kinact/KI was found to be 3.15 M⁻¹ s⁻¹.
Consider `CC#CC(=O)N1CC(N2CCC(c3cc4c(c(C)n3)O[C@H](C)c3c(N5CCOCC5)ccnc3N4)CC2)C1` (single isomer, unassigned) [Compound 345], for which, in assay [1], the IC50 was 87.1 nM. Besides, the IC50 in assay [2] was more than 10000 nM. Besides, in assay [3], the Ki turned out to be 0.131 µM and the kinact is 3.88e-05 s⁻¹. Further, in assay [3] (setting [4]), the kinact/KI was found to be 296 M⁻¹ s⁻¹.
As for `C=CC(=O)N1CC(N2CCC(c3cc(C#N)c4c(c3)Nc3nccc(N5CCOCC5)c3[C@@H](C)O4)CC2)C1` (single isomer, unassigned) [Compound 354], the IC50 is 15.1 nM in assay [1] and 4570 nM in assay [2]. Moreover, the kinact/KI in assay [3] (setting [5]) stood at 2670 M⁻¹ s⁻¹.
In the case of `CC#CC(=O)N1CC(N2CC(c3cc4c(c(C)n3)O[C@H](C)c3c(N5CCOCC5)ccnc3N4)C2)C1` (single isomer, unassigned) [Compound 355], the IC50 in assay [1] is 195 nM. In addition, in assay [2], the IC50 was more than 10000 nM. In assay [3], the Ki came to 0.211 µM and the maximal inactivation rate constant (kinact) was 3.51e-05 s⁻¹. Moreover, the kinact/KI in assay [3] (setting [4]) turned out to be 166 M⁻¹ s⁻¹.
Turning to `C=CC(=O)N1CC[C@H](N2CC(c3cc(C)c4c(c3)Nc3nccc(-c5cnn(C)c5)c3CO4)C2)C1` (single isomer, unassigned) [Compound 361], in assay [1], the IC50 is 60.3 nM. Further, the IC50 in assay [2] is approximately 10000 nM. Besides, in assay [3], the Ki worked out at 0.0291 µM and the kinact worked out at 5.06e-05 s⁻¹. Besides, the kinact/KI in assay [3] (setting [4]) stood at 1740 M⁻¹ s⁻¹.
The matching figures for `C=CC(=O)N1CC[C@@H](N2CC(c3cc(C)c4c(c3)Nc3nccc(-c5cnn(C)c5)c3CO4)C2)C1` (single isomer, unassigned) [Compound 362]: 58.9 nM, 10000 nM, 0.0325 µM, 6.59e-05 s⁻¹ and 2030 M⁻¹ s⁻¹.
On to `C=CC(=O)N1CC[C@@H](N2CCC(c3cc4c(c(C)n3)OCc3c(N5CCOCC5)ccnc3N4)CC2)C1` (single isomer, unassigned) [Compound 363], for which the “CDK7_A549 Wild-type CDK7 (pIC50)” value in assay [1] came to 7.52. Also, in assay [2], the “CDK7_A549 mutant hCDK7(pIC50)” value is listed as less than 5. Further, in assay [3], the “CDK7 (20 nM enz.) (kinact, s^−1)” value was 5.097e-05 s⁻¹; the “CDK7 (20 nM enz.) (kinact/KI, M^−1*s^−1)” value turned out to be 1874.15 M⁻¹ s⁻¹; the Ki was 0.0272 µM.
Consider `C=C(C(=O)N1CC[C@@H](N2CCC(c3cc4c(c(C)n3)OCc3c(-c5cnn(C)c5)ccnc3N4)CC2)C1)n1cccn1` (single isomer, unassigned) [Compound 365], for which the results for the IC50 in assay [1] and in assay [2] were 43.7 nM and more than 10000 nM, respectively. The compound also yielded a Ki in assay [3] of 0.046 µM. The kinact in assay [3] was found to be 4.07e-05 s⁻¹. Also, the kinact/KI in assay [3] (setting [4]) was 885 M⁻¹ s⁻¹.
As for `CC#CC(=O)N1CC(N2CCC(c3cc4c(c(C)n3)O[C@H](C)c3c(N5CCOCC5)ccnc3N4)CC2)C1` (single isomer, unassigned) [Compound 370], the “CDK7_A549 Wild-type CDK7 (pIC50)” value in assay [1] was found to be 7.19. Moreover, the IC50 in assay [2] was more than 10000 nM. In addition, in assay [3], the “CDK7 (20 nM enz.) (kinact/KI, M^−1*s^−1)” value was 206.483 M⁻¹ s⁻¹; the Ki was 0.112 µM; the maximal inactivation rate constant (kinact) is 2.32e-05 s⁻¹.
Consider `C=C(C(=O)N1CC[C@H](N2CCC(c3cc4c(c(C)n3)OCc3c(-c5cnn(C)c5)ccnc3N4)CC2)C1)n1cccn1` (single isomer, unassigned) [Compound 372], for which the IC50 in assay [1] is 70.8 nM. In assay [2], the IC50 is more than 10000 nM. Moreover, in assay [3], the Ki was found to be 0.0621 µM and the kinact stood at 3.74e-05 s⁻¹. The kinact/KI in assay [3] (setting [4]) amounted to 603 M⁻¹ s⁻¹.
The matching figures for `CC#CC(=O)N1CCC(N2CC(c3cc4c(c(C5CC5)n3)O[C@@H](C)c3c(N5CCOCC5)ccnc3N4)C2)CC1` (single isomer, unassigned) [Compound 374]: 457 nM, more than 10000 nM, 1.36 µM, 3.18e-05 s⁻¹ and 23.3 M⁻¹ s⁻¹.
In the case of `C=CC(=O)N1CCC(N2CC(c3cc4c(c(C5CC5)n3)O[C@@H](C)c3c(N5CCOCC5)ccnc3N4)C2)CC1` (single isomer, unassigned) [Compound 375], the IC50 in assay [1] is 1290 nM. The IC50 in assay [2] was more than 10000 nM. In assay [3], the Ki worked out at 2.12 µM and the maximal inactivation rate constant (kinact) amounted to 2.58e-05 s⁻¹. Besides, the kinact/KI in assay [3] (setting [4]) worked out at 12.2 M⁻¹ s⁻¹.
The matching figures for `CC#CC(=O)N1CCC(N2CC(c3cc4c(c(C5CC5)n3)O[C@H](C)c3c(N5CCOCC5)ccnc3N4)C2)CC1` (single isomer, unassigned) [Compound 376]: 35.5 nM, 5010 nM, 0.0467 µM, 9.41e-05 s⁻¹ and 2020 M⁻¹ s⁻¹.
Take `C=CC(=O)N1CCC(N2CC(c3cc4c(c(C5CC5)n3)O[C@H](C)c3c(N5CCOCC5)ccnc3N4)C2)CC1` (single isomer, unassigned) [Compound 377]: the IC50 in assay [1] was 50.1 nM. In addition, the IC50 in assay [2] is 5750 nM. In assay [3], the Ki was determined as 0.0468 µM and the kinact came to 2.2e-05 s⁻¹. Also, in assay [3] (setting [4]), the kinact/KI turned out to be 469 M⁻¹ s⁻¹.
The matching figures for `CC#CC(=O)N1CC(N2CC[C@@H](c3cc4c(c(C)n3)OCc3c(N5CCOCC5)ccnc3N4)C2)C1` (single isomer, unassigned) [Compound 386]: 1620 nM, more than 10000 nM, 0.399 µM, 1.64e-05 s⁻¹ and 41.1 M⁻¹ s⁻¹.
For `CC#CC(=O)N1CC(N2CC[C@H](c3cc4c(c(C)n3)OCc3c(N5CCOCC5)ccnc3N4)C2)C1` (single isomer, unassigned) [Compound 387] the same measures were 977 nM, more than 10000 nM, 0.451 µM, 2.21e-05 s⁻¹ and 49.1 M⁻¹ s⁻¹.
As for `C=CC(=O)N1CC[C@H](N2CC(c3cc(C)c4c(c3)Nc3nccc(N5CCOCC5)c3[C@@H](C)O4)C2)C1` (single isomer, unassigned) [Compound 388], the IC50 in assay [1] is approximately 22.9 nM; in assay [2] it was 7240 nM. The kinact/KI in assay [3] (setting [5]) is 1270 M⁻¹ s⁻¹.
For `C=CC(=O)N1CC(N2CC[C@@H](c3cc4c(c(C)n3)O[C@@H](C)c3c(N5CCOCC5)ccnc3N4)C2)C1` (single isomer, unassigned) [Compound 392], the IC50 in assay [1] is 129 nM. Also, the IC50 in assay [2] is approximately 10000 nM. For the same compound, in assay [3], the Ki turned out to be 0.0655 µM and the kinact was found to be 5.4e-05 s⁻¹. Moreover, in assay [3] (setting [4]), the kinact/KI turned out to be 823 M⁻¹ s⁻¹.
With `C=CC(=O)N1CC[C@@H](N2CC(c3cc(C)c4c(c3)Nc3nccc(N5CCOCC5)c3[C@@H](C)O4)C2)C1` (single isomer, unassigned) [Compound 398], the IC50 in assay [1] was 30.2 nM; in assay [2], 6170 nM. The kinact/KI in assay [3] (setting [5]) was determined as 1630 M⁻¹ s⁻¹.
Regarding `C=CC(=O)N1CC[C@@H](N2CC(c3cc4c(c(C(F)(F)F)n3)OCc3c(N5CCOCC5)ccnc3N4)C2)C1` (single isomer, unassigned) [Compound 402], in assay [1], the “CDK7_A549 Wild-type CDK7 (pIC50)” value was 7.1. Further, in assay [2], the “CDK7_A549 mutant hCDK7(pIC50)” value is on record as 5.15. In assay [3], the “CDK7 (20 nM enz.) (kinact, s^−1)” value was 0.000126 s⁻¹; the “CDK7 (20 nM enz.) (kinact/KI, M^−1*s^−1)” value turned out to be 1530.27 M⁻¹ s⁻¹; the Ki amounted to 0.0823 µM.
